Source: ChEMBL document CHEMBL2331429, “Purgin II, a resin glycoside ester-type dimer and inhibitor of multidrug efflux pumps from Ipomoea purga” (J Nat Prod, 2013)
Active and inactive are the calls of the source. The rule behind the calls is not given here.

How the values were obtained:
MCF7 [1] = test: Potentiation of vinblastine-induced cytotoxicity in human MCF7 cells at 25 ug/ml after 72 hrs by SRB assay; type: functional
MCF7 [2] = test: Cytotoxicity against human MCF7 cells after 72 hrs by SRB assay; type: cell-based; details: MCF7, 72 h
[3] = biological target: T1, ATP-dependent translocase ABCB1 (Homo sapiens, UniProt P08183); test: Inhibition of p-glycoprotein in human vinblastine-resistant MCF7 cells cultured in vinblastine-free medium assessed as potentiation of vinblastine-induced cytotoxicity at 25 ug/ml after 72 hrs by SRB assay; type: cell-based; details: mcf7, 72 h
T1 sequence (P08183 whole entry): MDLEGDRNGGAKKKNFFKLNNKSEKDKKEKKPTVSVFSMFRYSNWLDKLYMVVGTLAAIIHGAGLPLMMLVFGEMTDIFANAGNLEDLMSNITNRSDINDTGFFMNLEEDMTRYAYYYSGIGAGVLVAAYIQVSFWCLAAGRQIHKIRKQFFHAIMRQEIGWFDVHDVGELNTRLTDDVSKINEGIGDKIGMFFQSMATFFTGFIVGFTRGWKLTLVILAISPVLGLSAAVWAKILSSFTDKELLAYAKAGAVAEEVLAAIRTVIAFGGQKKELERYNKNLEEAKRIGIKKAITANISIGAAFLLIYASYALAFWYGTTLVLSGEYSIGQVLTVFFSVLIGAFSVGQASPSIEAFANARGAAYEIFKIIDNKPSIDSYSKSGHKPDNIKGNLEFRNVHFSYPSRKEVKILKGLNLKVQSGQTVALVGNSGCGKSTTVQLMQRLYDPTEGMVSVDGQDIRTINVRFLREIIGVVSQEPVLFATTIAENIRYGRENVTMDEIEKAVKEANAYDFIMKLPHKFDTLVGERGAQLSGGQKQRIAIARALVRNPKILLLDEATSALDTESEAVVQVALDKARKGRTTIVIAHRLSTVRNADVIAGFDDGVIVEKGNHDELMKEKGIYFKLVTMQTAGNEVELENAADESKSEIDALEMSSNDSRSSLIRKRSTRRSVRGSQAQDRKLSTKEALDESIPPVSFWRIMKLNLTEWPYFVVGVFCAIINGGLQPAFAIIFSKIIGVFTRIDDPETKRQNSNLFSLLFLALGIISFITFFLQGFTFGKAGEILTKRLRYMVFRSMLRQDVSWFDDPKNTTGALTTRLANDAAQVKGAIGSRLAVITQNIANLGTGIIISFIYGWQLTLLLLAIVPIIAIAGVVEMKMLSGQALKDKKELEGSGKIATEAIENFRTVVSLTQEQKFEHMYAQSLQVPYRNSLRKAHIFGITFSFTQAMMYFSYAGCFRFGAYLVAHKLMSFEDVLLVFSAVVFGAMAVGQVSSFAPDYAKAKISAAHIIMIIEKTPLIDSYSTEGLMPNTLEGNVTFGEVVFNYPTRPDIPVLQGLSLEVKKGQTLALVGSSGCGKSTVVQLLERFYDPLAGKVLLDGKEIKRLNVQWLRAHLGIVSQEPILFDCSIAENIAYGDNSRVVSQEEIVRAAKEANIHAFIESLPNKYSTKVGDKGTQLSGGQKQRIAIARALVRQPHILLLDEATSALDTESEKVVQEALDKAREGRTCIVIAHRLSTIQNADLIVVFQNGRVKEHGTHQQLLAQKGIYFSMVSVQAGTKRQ

[4] = biological target: T1, ATP-dependent translocase ABCB1; test: Inhibition of p-glycoprotein in human vinblastine-resistant MCF7 cells cultured in medium containing vinblastine assessed as potentiation of vinblastine-induced cytotoxicity at 25 ug/ml after 72 hrs by SRB assay; type: cell-based; details: mcf7, 72 h
MCF7 [5] = test: Cytotoxicity against human vinblastine-resistant MCF7 cells after 72 hrs by SRB assay; type: cell-based; details: MCF7, 72 h
[6] = biological target: T1, ATP-dependent translocase ABCB1; test: Inhibition of p-glycoprotein in human vinblastine-resistant MCF7 cells assessed as increase of rhodamine-123 accumulation at 5 to 25 ug/ml measured up to 50 mins; type: cell-based; details: mcf7, 50 min
MCF7 [7] = test: Reversible inhibition of p-glycoprotein in human vinblastine-resistant MCF7 cells assessed as increase of rhodamine-123 accumulation at 5 to 25 ug/ml measured up to 50 mins; type: cell-based
[8] = biological target: T1, ATP-dependent translocase ABCB1; test: Inhibition of p-glycoprotein in human vinblastine-resistant MCF7 cells cultured in medium containing vinblastine assessed as potentiation of vinblastine-induced cytotoxicity at 5 ug/ml after 72 hrs by SRB assay; type: cell-based; details: mcf7, 72 h
[9] = biological target: T1, ATP-dependent translocase ABCB1; test: Inhibition of p-glycoprotein in human vinblastine-resistant MCF7 cells cultured in vinblastine-free medium assessed as potentiation of vinblastine-induced cytotoxicity at 5 ug/ml after 72 hrs by SRB assay; type: cell-based; details: mcf7, 72 h
[10] = biological target: T1, ATP-dependent translocase ABCB1; test: Inhibition of p-glycoprotein in human vinblastine-resistant MCF7 cells assessed as increase of rhodamine-123 accumulation at 5 ug/ml measured up to 50 mins; type: cell-based; details: mcf7, 50 min

With `CCCCCCCCCC(=O)O[C@H]1[C@H](O[C@@H]2[C@@H](O)[C@@H](O)[C@H](O[C@H]3[C@H](O[C@@H](CCCCC)CCCCCCCCCC(=O)O[C@H]4[C@H](O)[C@@H](O)[C@H](O[C@@H]5[C@@H](O[C@@H]6O[C@@H](C)[C@H](OC(=O)CCCCC)[C@@H](OC(=O)/C=C/c7ccccc7)[C@H]6O)[C@H](C)O[C@@H](O[C@@H]6[C@@H](O)[C@H]7OC(=O)CCCCCCCCC[C@H](CCCCC)O[C@@H]8O[C@H](CO)[C@@H](O)[C@H](O)[C@H]8O[C@@H]7O[C@H]6C)[C@@H]5OC(=O)CCCCCCCCC)O[C@@H]4CO)O[C@H](CO)[C@@H](O)[C@@H]3O)O[C@H]2C)O[C@@H](C)[C@H](O[C@@H]2O[C@@H](C)[C@H](OC(=O)CCCCC)[C@@H](OC(=O)/C=C/c3ccccc3)[C@H]2O)[C@H]1O[C@@H]1O[C@H](CO)[C@@H](O)[C@H](O)[C@H]1O` [PURGIN III] as the molecule, how does the “fold change (FC)” value (MCF7 [1]) read?
The value was 4.7.

And the IC50 (MCF7 [2])?
Its IC50 is > 25 µg/mL.

What about the “fold change (FC)” value [3] of the same molecule?
Its value is 6.5.

And the “fold change (FC)” value [4]?
The value was 6.4.

And the IC50 (MCF7 [5])?
The IC50 was > 25 µg/mL.

Which “fold change (FC)” value (MCF7 [1]) does the source give for `CCCCCCCCCC(=O)O[C@H]1[C@H](O[C@@H]2[C@@H](O)[C@@H](O)[C@H](O[C@H]3[C@H](O[C@@H](CCCCC)CCCCCCCCCC(=O)O[C@H]4[C@H](O)[C@@H](O)[C@H](O[C@@H]5[C@@H](O[C@@H]6O[C@@H](C)[C@H](OC(=O)[C@@H](C)CC)[C@@H](OC(=O)/C=C/c7ccccc7)[C@H]6O)[C@H](C)O[C@@H](O[C@@H]6[C@@H](O)[C@H]7OC(=O)CCCCCCCCC[C@H](CCCCC)O[C@@H]8O[C@H](CO)[C@@H](O)[C@H](O)[C@H]8O[C@@H]7O[C@H]6C)[C@@H]5OC(=O)CCCCCCCCC)O[C@@H]4CO)O[C@H](CO)[C@@H](O)[C@@H]3O)O[C@H]2C)O[C@@H](C)[C@H](O[C@@H]2O[C@@H](C)[C@H](OC(=O)[C@@H](C)CC)[C@@H](OC(=O)/C=C/c3ccccc3)[C@H]2O)[C@H]1O[C@@H]1O[C@H](CO)[C@@H](O)[C@H](O)[C@H]1O` [PURGIN II] here?
The value was >73.4.

And the IC50 (MCF7 [2])?
Its IC50 is > 25 µg/mL.

What about the “inhibition (INH)” value [6] of the same molecule?
The value was “Active”.

What about the “fold change (FC)” value [3] of the same molecule?
Its value is > 2140.6.

And the inhibition (MCF7 [7])?
Its inhibition is “Active”.

What about the “fold change (FC)” value [4] of the same molecule?
Its value is > 1687.5.

And the IC50 (MCF7 [5])?
The IC50 was > 25 µg/mL.

What does the source list for `CCCCCCCCCCCC(=O)O[C@H]1[C@H](O[C@@H]2[C@@H](O)[C@@H](O)[C@H](O[C@H]3[C@H](O[C@@H](CCCCC)CCCCCCCCCC(=O)O[C@H]4[C@H](O)[C@@H](O)[C@H](O[C@@H]5[C@@H](O[C@@H]6O[C@@H](C)[C@H](OC(=O)[C@@H](C)CC)[C@@H](O)[C@H]6OC(=O)/C=C/c6ccccc6)[C@H](C)O[C@@H](O[C@@H]6[C@@H](O)[C@H]7OC(=O)CCCCCCCCC[C@H](CCCCC)O[C@@H]8O[C@H](C)[C@H](O)[C@H](O)[C@H]8O[C@@H]7O[C@H]6C)[C@@H]5OC(=O)CCCCCCCCCCC)O[C@@H]4CO)O[C@H](C)[C@H](O)[C@@H]3O)O[C@H]2C)O[C@@H](C)[C@H](O[C@@H]2O[C@@H](C)[C@H](OC(=O)[C@@H](C)CC)[C@@H](OC(=O)/C=C/c3ccccc3)[C@H]2O)[C@H]1O[C@@H]1O[C@H](CO)[C@@H](O)[C@H](O)[C@H]1O` [PURGIN I]?
fold change (FC) (MCF7 [1]): 2.9; IC50 (MCF7 [2]): > 25 µg/mL; fold change (FC) [3]: 3.8; fold change (FC) [4]: 4.7; IC50 (MCF7 [5]): > 25 µg/mL

`CCCCCCCCCC(=O)O[C@H]1[C@H](O[C@@H]2[C@@H](O)[C@H]3OC(=O)CCCCCCCCC[C@H](CCCCC)O[C@@H]4O[C@H](C)[C@H](O)[C@H](O)[C@H]4O[C@@H]3O[C@H]2C)O[C@@H](C)[C@H](O[C@@H]2O[C@@H](C)[C@H](OC(=O)CCCCC)[C@@H](OC(=O)/C=C/c3ccccc3)[C@H]2O)[C@H]1O[C@@H]1O[C@H](CO)[C@@H](O)[C@H](O)[C@H]1O` [PURGINOSIDE II] was tested. Which “fold change (FC)” value (MCF7 [1]) did it give?
Its value is 1.4.

What about the IC50 (MCF7 [2]) of the same molecule?
Its IC50 is > 25 µg/mL.

What about the “fold change (FC)” value [3] of the same molecule?
The value was 1.4.

And the “fold change (FC)” value [4]?
The value was 1.2.

And the IC50 (MCF7 [5])?
Its IC50 is > 25 µg/mL.

`CCCCCCCCCC(=O)O[C@H]1[C@H](O[C@@H]2[C@@H](O)[C@H]3OC(=O)CCCCCCCCC[C@H](CCCCC)O[C@@H]4O[C@H](C)[C@H](O)[C@H](O)[C@H]4O[C@@H]3O[C@H]2C)O[C@@H](C)[C@H](O[C@@H]2O[C@@H](C)[C@H](OC(=O)CCCCC)[C@@H](O)[C@H]2O)[C@H]1O[C@@H]1O[C@H](CO)[C@@H](O)[C@H](O)[C@H]1O` [PURGINOSIDE IV] was tested. Which “fold change (FC)” value (MCF7 [1]) did it give?
The value was 2.5.

What about the IC50 (MCF7 [2]) of the same molecule?
Its IC50 is > 25 µg/mL.

And the “fold change (FC)” value [3]?
Its value is 3.

And the “fold change (FC)” value [4]?
The value was 3.3.

And the IC50 (MCF7 [5])?
The IC50 was > 25 µg/mL.

Which “fold change (FC)” value (MCF7 [1]) does the source give for `CCCCCCCCCC(=O)O[C@H]1[C@H](O[C@@H]2[C@@H](O)[C@H]3OC(=O)CCCCCCCCC[C@H](CCCCC)O[C@@H]4O[C@H](C)[C@H](O)[C@H](O)[C@H]4O[C@@H]3O[C@H]2C)O[C@@H](C)[C@H](O[C@@H]2O[C@@H](C)[C@H](OC(=O)[C@@H](C)CC)[C@@H](O)[C@H]2OC(=O)/C=C/c2ccccc2)[C@H]1O[C@@H]1O[C@H](CO)[C@@H](O)[C@H](O)[C@H]1O` [PURGINOSIDE I] here?
Its value is 0.8.

What about the IC50 (MCF7 [2]) of the same molecule?
The IC50 was > 25 µg/mL.

And the “fold change (FC)” value [3]?
Its value is 2.9.

What about the “fold change (FC)” value [4] of the same molecule?
Its value is 2.8.

And the IC50 (MCF7 [5])?
The IC50 was > 25 µg/mL.

For `COC(=O)[C@H]1[C@H]2C[C@@H]3c4[nH]c5cc(OC)ccc5c4CCN3C[C@H]2C[C@@H](OC(=O)c2cc(OC)c(OC)c(OC)c2)[C@@H]1OC` [RESERPINE], which “fold change (FC)” value [8] is on record?
The value was 29.2.

What about the “fold change (FC)” value [9] of the same molecule?
The value was 4.4.

And the “inhibition (INH)” value [10]?
Its value is “Active”.
